From PubChem BioAssay AID2823 (Broad Institute, 2010) come the findings set out here.

Molecules are shown by their SMILES. Calls of active or inactive are those of the source. The rule behind the calls is not given here. A value given as a limit tells only on which side of the number the result lay.

This assay concerns the target RanGTP-importin-beta complex (human Ran / KPNB1). As to the kind of experiment: disruptors of RanGTP/KPNB1 binding – biochemical, FRET, CFP/YFP, cell-free homogeneous, confirmation (AID 2823). To be noted: CFP-Ran/YFP-importin-beta FRET ratio.
As a reminder, the IC50 is the point on the concentration scale where inhibition reaches its midpoint. On to `C/C(=N\NC(=O)c1c(C)nc2ccccn12)c1ccc(O)cc1O`, for which the IC50 is > 50 µM (inactive).
On to `Cc1cccn2c(=O)c(/C=C(\C#N)C(N)=O)c(Oc3ccccc3)nc12`, for which the IC50 is 1.96 µM.
As for `COc1ccc(C(=O)Nc2ccc(S(=O)(=O)Nc3onc(C)c3C)cc2)cc1`, the figure is > 50 µM (inactive).
With `Cc1cccc(C2=NN(c3ccc(Br)cc3)[C@@H](C(=O)N3CCOC3=O)[C@@H]2c2ccc(F)cc2)c1`, the IC50 was 33.6 µM.
As for `O=C(c1cc2c(=O)n3ccccc3nc2s1)N1CCN(Cc2ccccc2)CC1`, the figure is > 50 µM (inactive); as for `C=CCn1c(O)c(C(C)=NCCc2ccccc2)c(=O)[nH]c1=O`, > 50 µM (inactive); as for `CCOC(=O)N1CCN(c2cc(=O)n(C3CCCCC3)c(=O)[nH]2)CC1`, > 50 µM (inactive).
Next, `COc1cc(NC(=O)C2CC2)c(OC)cc1NC(=O)c1ccco1`: > 50 µM (inactive).
Next, `COc1ccc(N2Cc3ccccc3/C2=N\C(=O)Nc2ccccc2)cc1`: > 50 µM (inactive); `COc1ccc(C(=O)/C=C/Nc2cccc(C)n2)cc1OC`: 22.8 µM.
On to `O=C(Oc1c(Br)cc(C(=S)N2CCOCC2)cc1Br)c1ccc(Cl)cc1`, for which the IC50 is > 50 µM (inactive).
Next, `Cc1cc(NCCN(C)C)n2nc(-c3cccs3)cc2n1`: 28.8 µM; `COCCCn1c(N)c(C(=O)OC(C)COC)c2nc3ccccc3nc21` (stereo not drawn): 24.8 µM.
Next, `N#CC1=C(N)SC(N)=C(C#N)C1c1cccc(Oc2ccccc2)c1`: > 50 µM (inactive).
As for `COc1cc(-c2nc3cnccn3c2Nc2ccc(C(C)C)cc2)ccc1O`, the figure is > 50 µM (inactive); as for `NNC(=O)c1cc2nc(-c3cccs3)cc(C(F)(F)F)n2n1`, > 50 µM (inactive).
Consider `COc1ccc(N=Cc2cc(Cc3ccccc3Cl)cc([N+](=O)[O-])c2O)cc1OC`, for which the IC50 was > 50 µM (inactive).
As for `O=S(=O)(Cc1ccc(Cl)cc1)Nc1ccc2c(c1)OCO2`, the figure is > 50 µM (inactive).
As for `N=c1c(S(=O)(=O)c2ccc(Cl)cc2)cc2c(=O)n3ccccc3nc2n1Cc1cccnc1`, the figure is > 50 µM (inactive); as for `O=c1c2cc(NC(=S)N3CCC(N4CCCCC4)CC3)ccc2nc2n1CCCCC2`, > 50 µM (inactive).
Next, `COc1cc(/C=N/NC(=O)c2cc(C)oc2C)ccc1O`: > 50 µM (inactive); `N#C/C(=C\c1ccc(-c2ccc(F)cc2)o1)C(=O)Nc1nc(-c2cccs2)cs1`: > 50 µM (inactive); `COCCn1c(=NC(=O)c2ccc3c(c2)OCO3)c(C#N)cc2c(=O)n3cccc(C)c3nc21`: > 50 µM (inactive).
Take `CCCOc1ccc(Cn2ccnc2)cc1[N+](=O)[O-]`: the IC50 was > 50 µM (inactive).
For `COc1ccc(-n2c(N)c(C(=O)NCc3ccco3)c3nc4ccccc4nc32)cc1OC`, the IC50 is 45.6 µM.
As for `Clc1ccc(/C=C/c2ncc3ccccn23)cc1`, the figure is 12.5 µM; as for `CCOC(=O)C1(CCc2ccccc2)CCN(Cc2ccccn2)CC1`, > 50 µM (inactive); as for `CCCCn1c(NC(=O)c2ccc(Br)o2)c(S(=O)(=O)c2ccccc2)c2nc3ccccc3nc21`, 4.83 µM.
As for `COC(=O)C1=CN(Cc2ccc(OC)cc2)C=C(C(=O)OC)C1c1ccc(O)c(OC)c1`, the figure is > 50 µM (inactive).
As for `CCN(CC)c1nc(-c2ccccc2)cc(C(F)(F)F)c1C#N`, the figure is 7.28 µM; as for `N#Cc1c(N)n(CCNC(=O)c2ccc(Cl)cc2)c2nc3ccccc3nc12`, 7.21 µM; as for `COc1ccc(CCn2c(=N)c(C(=O)NCC3CCCO3)cc3c(=O)n4cccc(C)c4nc32)cc1` (stereo not drawn), 11.5 µM.
Take `CCN(C(=O)c1ccc(Cl)cc1[N+](=O)[O-])c1ccccc1C`: the IC50 was > 50 µM (inactive).
As for `O=C(/C=C/c1ccccc1[N+](=O)[O-])N1CCN(c2ccc(F)cc2)CC1`, the figure is > 50 µM (inactive); as for `O=C(COC(=O)c1ccc2ccccc2c1)NCCCc1ccccc1`, > 50 µM (inactive).
In the case of `COCc1ccc(CN2CCCC(CO)(Cc3ccccc3C)C2)o1` (stereo not drawn), the IC50 was > 50 µM (inactive).
With `NC(=S)Cc1nc(-c2ccc(Cl)cc2)cs1`, the IC50 was > 50 µM (inactive).
Next, `O=C(NNc1c2ccccc2nc2ccccc12)c1ccc(Cl)cc1`: > 50 µM (inactive).
Next, `CCCc1noc(-c2cccc([N+](=O)[O-])c2)n1`: > 50 µM (inactive); `CCN(CC)S(=O)(=O)c1cc(C(=O)Nc2ccccc2[N+](=O)[O-])ccc1Cl`: > 50 µM (inactive); `COc1ccc(OC(=O)C2CC(=O)N(c3ccc(C)cc3)C2)cc1` (stereo not drawn): > 50 µM (inactive).
For `CC(C)(C)NC(=O)C(c1ccco1)N(Cc1ccc(F)cc1)C(=O)c1snc(C(N)=O)c1N` (stereo not drawn), the IC50 is > 50 µM (inactive).
Next, `CCC(=O)Nc1c(S(=O)(=O)c2ccccc2)c2nc3ccccc3nc2n1Cc1ccccc1`: 20.9 µM; `COc1cc(NC(=O)c2cc(-c3cccs3)on2)cc(OC)c1OC`: > 50 µM (inactive); `O=c1[nH]c2cc(Br)cnc2nc1/C=C(\O)c1ccc(F)cc1`: > 50 µM (inactive).
Next, `COc1cc(OC)cc(C(=O)NCCNc2nc3cc(C)cc(C)c3cc2C#N)c1`: 8.59 µM; `N#Cc1c(N)n(CCOC(=O)c2ccc(Cl)cc2)c2nc3ccccc3nc12`: 3.68 µM.
Regarding `Cn1c2ccccc2c(=O)c2ccc(F)cc21`, the IC50 is 12.6 µM.
As for `COc1ccc2cc(C#N)c(N3CCN(C(=O)c4ccccc4C)CC3)nc2c1`, the figure is > 50 µM (inactive); as for `CC(=O)N1CCc2c(sc(NC(=O)CCS(=O)(=O)c3ccc(C)cc3)c2C(N)=O)C1`, 30.7 µM; as for `COc1ccc(-n2c(C)cc(/C=C3/SC(=S)N(C)C3=O)c2C)cc1`, > 50 µM (inactive).
Next, `N#C/C(=C(/O)CSc1ccccn1)c1nc2ccccc2s1`: > 50 µM (inactive); `Cc1cc2c(c(=O)n1CC1CCCO1)C(c1ccco1)C(C#N)=C(N)O2` (stereo not drawn): 20.9 µM.
As for `Cc1cc2c(c(=O)n1C1CC1)C(c1cccc(Cl)c1)C(C#N)=C(N)O2` (stereo not drawn), the figure is > 50 µM (inactive).
Take `O=C(O)c1ccccc1C(=O)Nc1ccc(Br)c2cccnc12`: the IC50 is > 50 µM (inactive).
As for `CCOc1ccc(OCc2ccc(C(=O)N(CC)CC)cc2)cc1`, the figure is > 50 µM (inactive); as for `COc1ccc(-c2c(C)sc(NC(=O)c3ccnn3C)c2C#N)cc1`, > 50 µM (inactive); as for `Cn1c(=O)cc(N2CCCCC2)[nH]c1=O`, > 50 µM (inactive).
As for `CCOc1ccc(NS(=O)(=O)c2ccc3c(c2)CCN3C(=O)CCC(=O)O)cc1`, the figure is > 50 µM (inactive).
Regarding `COCCNC(=O)c1cnn2c(C(F)F)cc(-c3ccc(C)cc3)nc12`, the IC50 was 37.8 µM.
Next, `COc1cc(C2C3CN(C)CC=C3C(C#N)=C(N)C2(C#N)C#N)ccc1OC(C)C` (stereo not drawn): 12.1 µM; `O=C(Cc1cc(=O)oc2cc(O)ccc12)N[C@@H](Cc1c[nH]c2ccccc12)C(=O)O`: > 50 µM (inactive); `C=CCN1CCc2cccc3c2[C@H]1Cc1ccc(O)c(O)c1-3`: > 50 µM (inactive).
